Reference: US20180111893A1, “POLYCATIONIC AMPHIPHILES AND POLYMERS THEREOF AS ANTIMICROBIAL AGENTS AND METHODS USING SAME” (Temple University-Of The Commonwealth System of Higher …, priority 2015, published 2018)

Each molecule was assayed on Staphylococcus aureus (SA; MSSA SH1000) (assay: Minimum inhibitory concentration (MIC)). Settings: Table 6.
Format: cell-based
Experimental: (§1) As used herein, the term “minimum inhibitory concentration (MIC)” refers to the lowest concentration of an antimicrobial agent that will inhibit the visible growth of a microorganism after overnight incubation. MIC values against bacteria, for example, the Gram-positive Staphylococcus aureus and Enterococcus faecalis and the Gram-negative Escherichia coli and Pseudomonas aeruginosa were determined by standard methods. See also P. A. Wayne, Methods for Dilution Antimicrobial Tests for Bacteria that Grow Aerobically; Approved Standard, Ninth Edition, 2012, CLSI Document M07-A9, Vol. 32 No. 2, which is incorporated by reference herein in its entirety.
(§2) Compounds were serially diluted two-fold from a 10% DMSO/aqueous stock solution to yield twelve test concentrations. Overnight S. aureus, E. faecalis, E. coli, P. aeruginosa, CA-MRSA, and HA-MRSA cultures diluted to ca. 10^6 cfu/mL in Mueller-Hinton media and 100 μL were inoculated into each well of a U-bottom 96-well plate (BD Biosciences, BD351177) containing 100 μL of compound solution. Plates were incubated statically at 37° C. for 72 hours upon which time wells were evaluated visually for bacterial growth. The MIC was determined as the lowest concentration of compound resulting in no bacterial growth visible to the naked eye, based on the majority of three independent experiments. Positive and negative DMSO/aqueous solution and media controls were conducted for each trial. See Peng et al., 2011, Chem. Comm. 47:4896-4898.
as §2, with “trial.” for “trial. See Peng et al., 2011, Chem. Comm. 47:4896-4898.”
With `CCCCCCCCCCC[N+](C)(C)CCCN(CCC[N+](C)(C)CCCCCCCCCCC)CCC[N+](C)(C)CCCCCCCCCCC` [sT-11,11,11,0] the “MIC SA” value was 0.5 µM. In the case of `CCCCCCCCCCC[N+](C)(C)CCC[N+](C)(CCC[N+](C)(C)CCCCCCCCCCC)CCC[N+](C)(C)CCCCCCCCCCC.[Br-].[Br-].[Br-].[I-]` [sT-11,11,11,1], the “MIC SA” value is reported as 0.5 µM. `C=CC[N+](CCC[N+](C)(C)CCCCCCCCCCC)(CCC[N+](C)(C)CCCCCCCCCCC)CCC[N+](C)(C)CCCCCCCCCCC` [sT-11,11,11,3A] was tested, and the “MIC SA” value was 0.5 µM. With `CCCCCCCCCCC[N+](C)(C)CCC[N+](CCC[N+](C)(C)CCCCCCCCCCC)(CCC[N+](C)(C)CCCCCCCCCCC)Cc1ccccc1` [sT-11,11,11,Bn] the “MIC SA” value was 0.25 µM. `CCCCCCCCCCCC[N+](C)(C)CCCN(CCC[N+](C)(C)CCCCCCCCCCCC)CCC[N+](C)(C)CCCCCCCCCCCC` [sT-12,12,12,0] was tested, and the “MIC SA” value was 0.5 µM. For `CCCCCCCCCCCC[N+](C)(C)CCC[N+](C)(CCC[N+](C)(C)CCCCCCCCCCCC)CCC[N+](C)(C)CCCCCCCCCCCC` [sT-12,12,12,1], the “MIC SA” value was 1 µM. In the case of `C=CC[N+](CCC[N+](C)(C)CCCCCCCCCCCC)(CCC[N+](C)(C)CCCCCCCCCCCC)CCC[N+](C)(C)CCCCCCCCCCCC` [sT-12,12,12,3A], the “MIC SA” value is reported as 1 µM.

The molecules below were run on community-acquired methicillin-resistant Staphylococcus aureus CA-MRSA (USA300-0114) (assay: Minimum inhibitory concentration (MIC)). Settings: Table 6.
Format: cell-based
Experimental: as §1, §2
as §2, with “trial.” for “trial. See Peng et al., 2011, Chem. Comm. 47:4896-4898.”
For `CCCCCCCCCCC[N+](C)(C)CCCN(CCC[N+](C)(C)CCCCCCCCCCC)CCC[N+](C)(C)CCCCCCCCCCC` [sT-11,11,11,0], the “MIC CA-MRSA” value was 0.5 µM. In the case of `CCCCCCCCCCC[N+](C)(C)CCC[N+](C)(CCC[N+](C)(C)CCCCCCCCCCC)CCC[N+](C)(C)CCCCCCCCCCC.[Br-].[Br-].[Br-].[I-]` [sT-11,11,11,1], the “MIC CA-MRSA” value is reported as ≤0.25 µM. `C=CC[N+](CCC[N+](C)(C)CCCCCCCCCCC)(CCC[N+](C)(C)CCCCCCCCCCC)CCC[N+](C)(C)CCCCCCCCCCC` [sT-11,11,11,3A] was tested, and the “MIC CA-MRSA” value was 0.5 µM. With `CCCCCCCCCCC[N+](C)(C)CCC[N+](CCC[N+](C)(C)CCCCCCCCCCC)(CCC[N+](C)(C)CCCCCCCCCCC)Cc1ccccc1` [sT-11,11,11,Bn] the “MIC CA-MRSA” value was ≤0.25 µM. `CCCCCCCCCCCC[N+](C)(C)CCCN(CCC[N+](C)(C)CCCCCCCCCCCC)CCC[N+](C)(C)CCCCCCCCCCCC` [sT-12,12,12,0] was tested, and the “MIC CA-MRSA” value was 0.5 µM. With `CCCCCCCCCCCC[N+](C)(C)CCC[N+](C)(CCC[N+](C)(C)CCCCCCCCCCCC)CCC[N+](C)(C)CCCCCCCCCCCC` [sT-12,12,12,1] the “MIC CA-MRSA” value was 0.5 µM. For `C=CC[N+](CCC[N+](C)(C)CCCCCCCCCCCC)(CCC[N+](C)(C)CCCCCCCCCCCC)CCC[N+](C)(C)CCCCCCCCCCCC` [sT-12,12,12,3A], the “MIC CA-MRSA” value was ≤0.25 µM.

Each molecule was assayed on Enterococcus faecalis (OG1RF) (assay: Minimum inhibitory concentration (MIC)). Settings: Table 6.
Format: cell-based
Experimental: as §1, §2
as §2, with “trial.” for “trial. See Peng et al., 2011, Chem. Comm. 47:4896-4898.”
`CCCCCCCCCCC[N+](C)(C)CCCN(CCC[N+](C)(C)CCCCCCCCCCC)CCC[N+](C)(C)CCCCCCCCCCC` [sT-11,11,11,0] was tested, and the “MIC EF” value was 0.5 µM. In the case of `CCCCCCCCCCC[N+](C)(C)CCC[N+](C)(CCC[N+](C)(C)CCCCCCCCCCC)CCC[N+](C)(C)CCCCCCCCCCC.[Br-].[Br-].[Br-].[I-]` [sT-11,11,11,1], the “MIC EF” value is reported as 0.25 µM. `C=CC[N+](CCC[N+](C)(C)CCCCCCCCCCC)(CCC[N+](C)(C)CCCCCCCCCCC)CCC[N+](C)(C)CCCCCCCCCCC` [sT-11,11,11,3A] was tested, and the “MIC EF” value was 0.5 µM. With `CCCCCCCCCCC[N+](C)(C)CCC[N+](CCC[N+](C)(C)CCCCCCCCCCC)(CCC[N+](C)(C)CCCCCCCCCCC)Cc1ccccc1` [sT-11,11,11,Bn] the “MIC EF” value was 0.5 µM. For `CCCCCCCCCCCC[N+](C)(C)CCCN(CCC[N+](C)(C)CCCCCCCCCCCC)CCC[N+](C)(C)CCCCCCCCCCCC` [sT-12,12,12,0], the “MIC EF” value was 1 µM. For `CCCCCCCCCCCC[N+](C)(C)CCC[N+](C)(CCC[N+](C)(C)CCCCCCCCCCCC)CCC[N+](C)(C)CCCCCCCCCCCC` [sT-12,12,12,1], the “MIC EF” value was 1 µM. In the case of `C=CC[N+](CCC[N+](C)(C)CCCCCCCCCCCC)(CCC[N+](C)(C)CCCCCCCCCCCC)CCC[N+](C)(C)CCCCCCCCCCCC` [sT-12,12,12,3A], the “MIC EF” value is reported as 0.5 µM.

What follows are molecules tested on Escherichia coli (MC4100) (assay: Minimum inhibitory concentration (MIC)). Settings: Table 6.
Format: cell-based
Experimental: as §1, §2
as §2, with “trial.” for “trial. See Peng et al., 2011, Chem. Comm. 47:4896-4898.”
For `CCCCCCCCCCC[N+](C)(C)CCCN(CCC[N+](C)(C)CCCCCCCCCCC)CCC[N+](C)(C)CCCCCCCCCCC` [sT-11,11,11,0], the “MIC EC” value was 0.5 µM. In the case of `CCCCCCCCCCC[N+](C)(C)CCC[N+](C)(CCC[N+](C)(C)CCCCCCCCCCC)CCC[N+](C)(C)CCCCCCCCCCC.[Br-].[Br-].[Br-].[I-]` [sT-11,11,11,1], the “MIC EC” value is reported as 0.25 µM. For `C=CC[N+](CCC[N+](C)(C)CCCCCCCCCCC)(CCC[N+](C)(C)CCCCCCCCCCC)CCC[N+](C)(C)CCCCCCCCCCC` [sT-11,11,11,3A], the “MIC EC” value was 0.5 µM. For `CCCCCCCCCCC[N+](C)(C)CCC[N+](CCC[N+](C)(C)CCCCCCCCCCC)(CCC[N+](C)(C)CCCCCCCCCCC)Cc1ccccc1` [sT-11,11,11,Bn], the “MIC EC” value was 0.5 µM. `CCCCCCCCCCCC[N+](C)(C)CCCN(CCC[N+](C)(C)CCCCCCCCCCCC)CCC[N+](C)(C)CCCCCCCCCCCC` [sT-12,12,12,0] was tested, and the “MIC EC” value was 1 µM. In the case of `CCCCCCCCCCCC[N+](C)(C)CCC[N+](C)(CCC[N+](C)(C)CCCCCCCCCCCC)CCC[N+](C)(C)CCCCCCCCCCCC` [sT-12,12,12,1], the “MIC EC” value is reported as 1 µM. `C=CC[N+](CCC[N+](C)(C)CCCCCCCCCCCC)(CCC[N+](C)(C)CCCCCCCCCCCC)CCC[N+](C)(C)CCCCCCCCCCCC` [sT-12,12,12,3A] was tested, and the “MIC EC” value was 0.5 µM.

The molecules below were run on Pseudomonas aeruginosa (PAO1) (assay: Minimum inhibitory concentration (MIC)). Settings: Table 6.
Format: cell-based
Experimental: as §1, §2
as §2, with “trial.” for “trial. See Peng et al., 2011, Chem. Comm. 47:4896-4898.”
With `CCCCCCCCCCC[N+](C)(C)CCCN(CCC[N+](C)(C)CCCCCCCCCCC)CCC[N+](C)(C)CCCCCCCCCCC` [sT-11,11,11,0] the “MIC PA” value was 1 µM. For `CCCCCCCCCCC[N+](C)(C)CCC[N+](C)(CCC[N+](C)(C)CCCCCCCCCCC)CCC[N+](C)(C)CCCCCCCCCCC.[Br-].[Br-].[Br-].[I-]` [sT-11,11,11,1], the “MIC PA” value was 1 µM. With `C=CC[N+](CCC[N+](C)(C)CCCCCCCCCCC)(CCC[N+](C)(C)CCCCCCCCCCC)CCC[N+](C)(C)CCCCCCCCCCC` [sT-11,11,11,3A] the “MIC PA” value was 1 µM. For `CCCCCCCCCCC[N+](C)(C)CCC[N+](CCC[N+](C)(C)CCCCCCCCCCC)(CCC[N+](C)(C)CCCCCCCCCCC)Cc1ccccc1` [sT-11,11,11,Bn], the “MIC PA” value was 1 µM. `CCCCCCCCCCCC[N+](C)(C)CCCN(CCC[N+](C)(C)CCCCCCCCCCCC)CCC[N+](C)(C)CCCCCCCCCCCC` [sT-12,12,12,0] was tested, and the “MIC PA” value was 4 µM. With `CCCCCCCCCCCC[N+](C)(C)CCC[N+](C)(CCC[N+](C)(C)CCCCCCCCCCCC)CCC[N+](C)(C)CCCCCCCCCCCC` [sT-12,12,12,1] the “MIC PA” value was 4 µM. For `C=CC[N+](CCC[N+](C)(C)CCCCCCCCCCCC)(CCC[N+](C)(C)CCCCCCCCCCCC)CCC[N+](C)(C)CCCCCCCCCCCC` [sT-12,12,12,3A], the “MIC PA” value was 2 µM.

The molecules below were run on hospital-acquired methicillin-resistant Staphylococcus aureus HA-MRSA (ATCC 33591) (assay: Minimum inhibitory concentration (MIC)). Settings: Table 6.
Format: cell-based
Experimental: as §1, §2
as §2, with “trial.” for “trial. See Peng et al., 2011, Chem. Comm. 47:4896-4898.”
In the case of `CCCCCCCCCCC[N+](C)(C)CCCN(CCC[N+](C)(C)CCCCCCCCCCC)CCC[N+](C)(C)CCCCCCCCCCC` [sT-11,11,11,0], the “MIC HA-MRSA” value is reported as 0.5 µM. `CCCCCCCCCCC[N+](C)(C)CCC[N+](C)(CCC[N+](C)(C)CCCCCCCCCCC)CCC[N+](C)(C)CCCCCCCCCCC.[Br-].[Br-].[Br-].[I-]` [sT-11,11,11,1] was tested, and the “MIC HA-MRSA” value was 0.5 µM. For `C=CC[N+](CCC[N+](C)(C)CCCCCCCCCCC)(CCC[N+](C)(C)CCCCCCCCCCC)CCC[N+](C)(C)CCCCCCCCCCC` [sT-11,11,11,3A], the “MIC HA-MRSA” value was 1 µM. For `CCCCCCCCCCC[N+](C)(C)CCC[N+](CCC[N+](C)(C)CCCCCCCCCCC)(CCC[N+](C)(C)CCCCCCCCCCC)Cc1ccccc1` [sT-11,11,11,Bn], the “MIC HA-MRSA” value was ≤0.25 µM. With `CCCCCCCCCCCC[N+](C)(C)CCCN(CCC[N+](C)(C)CCCCCCCCCCCC)CCC[N+](C)(C)CCCCCCCCCCCC` [sT-12,12,12,0] the “MIC HA-MRSA” value was 1 µM. In the case of `CCCCCCCCCCCC[N+](C)(C)CCC[N+](C)(CCC[N+](C)(C)CCCCCCCCCCCC)CCC[N+](C)(C)CCCCCCCCCCCC` [sT-12,12,12,1], the “MIC HA-MRSA” value is reported as 2 µM. For `C=CC[N+](CCC[N+](C)(C)CCCCCCCCCCCC)(CCC[N+](C)(C)CCCCCCCCCCCC)CCC[N+](C)(C)CCCCCCCCCCCC` [sT-12,12,12,3A], the “MIC HA-MRSA” value was 0.5 µM.
